In US11471463B2, “Enhancers of cellular cannibalism for use to sensitize tumors to radiation therapy” (Institut Gustave-Roussy, priority 2017, dated 2022):
Peptide text beside a SMILES is read from it. * marks the point of attachment. Cbz = O=C(OCc1ccccc1)*; CH2F = FC*

Legend:
MCA205 cells [1] = test: Anti-tumor vaccination assay, treated MCA205 cells inoculated into C57BL/6 mice and rechallenge; format: in vivo, mouse
Procedure: (§1) FIG. 5. Identification of cannibalism modulators as immunogenic cell death inducers. MCA205 (A) or CT26 (E, I, M, Q) cells were treated with the indicated drugs. After 24 h of coculture with the indicated treatment, cell death was monitored by staining DiOC6(3) and PI, and the percentage of dying (DiOC6(3)^low PI^−, open bars) and dead (DiOC6(3)^low PI^+, closed bars) cells was determined by cytofluorometry. (B-D) MCA205 cells or (F-H, J-L, N-P, R-T) CT26 cells cocultured after x irradiation with the indicated compounds were inoculated subcutaneously into the right flank of […] or BALB/c mice, respectively. Seven days later, the mice were rechallenged with live cells injected into the opposite flank, and tumor growth was monitored (five mice per group).
(§2) Considering that immunogenic cell death (ICD) inducers were identified (such as Digoxin, Digitoxin, Lanatoside C or Doxorubicin hydrochloride)^3, 4, 48-51) as IRCCE, the ability of these compounds to induce an antitumor immunity after radiotherapy was evaluated. […] Tumors were evaluated weekly using a common caliper. […] One week later, 5×10^5 untreated control cells were inoculated into the contralateral flank of mice and tumors were evaluated weekly using a common caliper. […] The percentage of dying cells in each condition was evaluated by determining with DiOC(6)3/IP staining (FIGS. 5E, 5I, 5M and 5Q). […]

MCA205 cells [2] = test: Cell death monitoring by DiOC6(3)/PI staining; format: cell-based, mouse
Procedure: as §1, §2

HCT116 cells [3] = test: Screening for enhancers of IR-mediated cellular cannibalism (imaging flow cytometry, confocal microscopy validation); format: cell-based, human; conditions: 8 Gray, 10 μM compound, 24 hours of culture
Procedure: FIG. 4 Identification of cannibalism modulators triggered by ionizing radiation. Compounds from the Prestwick (A) and CEA (F) libraries were tested for their capacities to induce cellular cannibalism after ionizing radiation. Cannibal cells were detected after homotypic cultures of 8 gray γ-irradiation HCT116 cells in the presence or absence of […] of the Prestwick (A) and CEA […] library compounds. Each dot represents one compound. Representative images are shown in (B, G). (C, H) HCT116 cells were treated with the indicated drugs. After 24 h of treatment, cell death was monitored by staining with 3,3 dihexyloxacarbocyanine iodide (DiOC6(3)) and PI, and the percentage of dying (DiOC6(3)^low PI^−, open bars) and dead (DiOC6(3)^low PI^+, closed bars) cells was determined by cytofluorometry. Validation of the cannibalism inducers by fluorescent microscopy. Representative images (D, I) and quantification (E, J) are shown. Results are means±s.e.m. of triplicate determinations.
Then, the screening of a library of chemical compounds was developed in order to identify compounds able to induce IR-mediated cellular cannibalism. Thus, HCT116 cells that have been treated with a radiation dose of 8 Gray were stained either with orange CMTMR cell tracker or green CMFDA cell tracker and cultivated in presence of 10 μM of chemical compounds. After 24 hours of culture, cells have been stained with nuclear dye (5 μg/ml of Hoechst 33342 during 1 h at 37° C.) and analyzed using the FlowSight® Imaging Flow Cytometer for cellular cannibalism. Each of these compounds were classified according to their Z-score^47 and identified respectively 13 and 11 candidate compounds (FIGS. 4A, 4B, 4F and 4G). Then, the identified compounds were validated by combining flow cytometry approaches (in order to eliminate cytotoxic compounds by simultaneously monitoring the depolarization of the internal mitochondrial membrane and the plasma membrane permeability of the treated cells) with confocal microscopy approaches (to confirm the modulation of IR-induced cellular cannibalism by candidate compounds) (FIGS. 4C-E and 4H-J). […] Finally, 16 chemical compounds that are able to enhance the capacity of IR to trigger cellular cannibalism were identified (FIGS. 4E and 4J, Tables 1&2).

CT26 cells = test: Anti-tumor vaccination assay, treated CT26 cells inoculated into BALB/c mice and rechallenge; format: in vivo, mouse; conditions: 8 Gy in presence of 10 μM compound for 24 hours
Procedure: as §1
FIG. 6. Tumor vaccination experiments. CT26 cells were treated for 24 hours with 10 μM VP331 (A, F, K), 10 μM Minaprine (B, G, L), 10 μM Lopa87 (C, H, M), 10 μM SG6163F (D, I, N), 10 μM Azaguanine-8 (8-aza) (E, J, O) alone or combined with 8 Gy ionizing radiation and inoculated (s.c.) into immunocompetent BALB/c mice, which were rechallenged at the opposite flank 7 days later with the same cancer cells. The percentage of tumor-free mice was evaluated three times a week for the following 38 days. Percentage of total tumor free mice (A-E), tumor free-mice at the first injection site (F to J, P) or at the second injection site (K to O, Q) are shown. (*P<0.05, **P<0.01, ***P<0.001, two-way ANOVA).
Considering that immunogenic cell death (ICD) inducers were identified (such as Digoxin, Digitoxin, Lanatoside C or Doxorubicin hydrochloride)^3, 4, 48-51) as IRCCE, the ability of these compounds to induce an antitumor immunity after radiotherapy was evaluated. First, a preclinical approaches was developed to study the immunological effects of IRCCE on two mouse models of carcinoma (colon CT26 carcinoma and fibrosarcoma MCA205). Initially, the ability of the combination of IRCCE+IR to trigger a specific anti-tumor immune response was appreciated using immunocompetent mice through anti-tumor vaccination assays. According to previously published studies^52, the injection of cancer cells succumbing to an immunogenic cell death (ICD) into immunocompetent mice must elicit a protective immune response that is specific for tumor antigens. Thus, 3×10^5 MCA205 cells were first treated with 10 μM of SG6163F for 24 hours. Then, treated cells were inoculated subcutaneously in 200 μl PBS into the lower flank of 8-week-old female C57BL/6 mice. One week later, 3×10^4 untreated control cells were inoculated into the contralateral flank of mice. Tumors were evaluated weekly using a common caliper. Animals bearing tumors that exceeded 20-25% body mass were euthanatized. […] Then, 3×10^6 CT26 cells were irradiated with 8 Gy in presence of 10 μM of SG6163F (FIGS. 5E and 5F), VP331 (FIGS. 5I and 5J), Minaprine dihydrochloride (FIGS. 5M and 5N) or LOPA87 (FIGS. 5Q and 5R) for 24 hours. Then, cells were inoculated as previously described subcutaneously in 200 μl PBS into the lower flank of 8-week-old female BALB/c mice. One week later, 5×10^5 untreated control cells were inoculated into the contralateral flank of mice and tumors were evaluated weekly using a common caliper. As previously mentioned, animals bearing tumors that exceeded 20-25% body mass were euthanatized. The percentage of dying cells in each condition was evaluated by determining with DiOC(6)3/IP staining (FIGS. 5E, 5I, 5M and 5Q). Finally, the ability of these compounds to repress the growth of cancer cells that have been injected 7 days after injection of irradiated and treated cancer cells was appreciated.
A second anti-tumor vaccination assay was done on CT26 mouse models of carcinoma as previously described. […]

HCT116 cells [4] = test: Cell death profiling by quantitative flow imaging of co-cultured irradiated and non-irradiated cells; format: cell-based, human; conditions: 4 grays, 24 hour co-culture; for Engulfment of neighboring cells by gamma-irradiated CMFDA+ cells (cell-in-cell internalization): Y27632 30 μM; for Engulfment of neighboring cells by gamma-irradiated CMFDA+ cells (cell-in-cell internalization) / Exposure of PS on the outer plasma membrane of irradiated CMFDA+ cells: Z-VAD-fmk 100 μM; for Exposure of PS on the outer plasma membrane of irradiated CMFDA+ cells: Roscovitine 10 μM
Procedure: Untreated HCT116 cells were labeled with CMFDA (green fluorescence, CMFDA^+) or CMTMR, (red fluorescence, CMTMR^+) and treated HCT116 cells with CMFDA (green fluorescence, CMFDA^+). The following cell mixtures were performed: untreated CMTMR^+ HCT116 cells were mixed with untreated CMFDA^+ HCT116 cells, or untreated CMTMR^+ HCT116 cells were mixed with treated CMFDA^+ HCT116 cells. Then, cells were co-cultured during 24 hours in the presence or absence of the pharmacological inhibitor of ROCK, Y27632 (30 μM), the pan-caspase inhibitor, Z-VAD-fmk (ZVAD, 100 μM), the inhibitor of caspase-1, Ac-YVAD-cmk (YVAD, 100 μM), the necroptosis inhibitor, Necrostatin-1 (NEC 1, 30 μM), the inhibitor of the vacuolar type H(+)-ATPase (V-ATPase) inhibiting autophagy, Bafilomycin A1 (BafA1, 50 nM), the inhibitor of Cdks with an anti-mitotic activity, Roscovitine (Rosco, 10 μM). After 24 hours of co-culture, both detached and adherent cells were collected and stained with Hoechst 33345 ([…]) during 1 hour at 37° C. in warmed complete medium. To detect phosphatidylserine (PS) exposure and plasma membrane permeability, labeled HCT116 cells were successively incubated with Biotin-AnnexinV (BD Pharmingen) as recommended by manufacturer, […] BV786-Streptavidin (BD Biosciences) and […] DRAQ7 (BioStatus) during 15 minutes at 25° C. After washing with PBS solution, samples were immediately analyzed using an imaging flow cytometer FlowSight® (Amnis®, part of EMD Millipore). Data were acquired at a 20× magnification, using INSPIRE software. The 405 nm, 488 nm, and 561 nm lasers were used for excitation. Brightfield, Annexin V-BV786, DRAQ7, CMFDA, CMTMR and Hoechst 33345 stainings were detected using respectively channels for 420-480 nm, 745-800 nm, 642-745 nm, 480-560 nm, 595-642 nm and 430-505 nm. At least 1000 events of cells per sample were analyzed. Additional single-labeled controls were prepared to normalize fluorescent signal across different channels. Acquired data were analyzed using the IDEAS analysis software (v6.1; Merck-Millipore). Gating strategy was the following. Cells were gated for focused cells using the Gradient RMS feature. Cells were gated for single cells using the aspect ratio and area features. For the cannibalism detection, cells were gated in the double positive CMFDA^+ and CMTMR^+ staining.
To detect PS exposure, plasma membrane permeability and cell cycle progression, cells were after co-culture sequentially labeled with specific fluorescent probes (such as FITC-conjugated AnnexinV, propidium iodide, and Hoechst 33342) and analyzed by flow cytometry. Both detached and adherent cells were collected and stained with Hoechst 33345 (10 ug/ml) during 1 hour at 37° C. in warmed complete medium. After washing with PBS, HCT116 cells were suspended in 1X binding buffer supplemented with fluorescein isothiocyanate (FITC)-conjugated Annexin V (BD Biosciences) and propidium iodide (PI, 1 μg/mL) (Sigma), as per manufacturer's instructions. Samples were then analyzed using LSRII flow cytometer (Becton Dickinson) and the FlowJo software v10. For confocal fluorescence microscopy, HCT116 cells were fixed after co-culture in 3,7% paraformaldehyde-PBS for 15 minutes and counterstained with 1 μg/mL Hoechst 33342 (Invitrogen) for 15 minutes. Then, cells were analyzed by confocal SPE microscope equipped with Apochromat 63×1.3 NA and 63×1.15 NA oil immersion objectives. The Leica Application Suite (LAS) software was used (Leica Microsystems).
Considering the diversity of lethal stimuli that can potentially initiate both non-cell autonomous and cell autonomous cell death modalities and the complexity of signaling pathways (involving (or not) caspases, cathepsins or granzymes) that control both processes, it was decided to simultaneously detect non-cell autonomous and cell autonomous death modalities elicited by IR. […]

Compound: O=C1NC(c2ccccc2)=N/C1=C\c1cc2ccccc2c2ccccc12 [SG6163F]
- Protective response after inoculation of untreated cells (MCA205 cells [1]; MCA205 cells treated with 10 μM compound alone, rechallenge one week later): did not exhibit a protective response
- Mice with protective response (MCA205 cells [1]; MCA205 cells treated with 8 Gy of IR and 10 μM compound): 3 of 5
- Increase of cell death in vitro (MCA205 cells [2]; 10 μM compound alone, 24 hours): not able to induce a significant increase of cell death
- Increase of death of treated and irradiated cells (MCA205 cells [2]; 8 Gy of IR and 10 μM compound): absence of a significant increase of death
- Enhancement of IR-mediated cellular cannibalism (IRCCE) (HCT116 cells [3]): efficient cellular cannibalism enhancer
- Frequency of mice showing a protective response (CT26 cells; first assay: CT26 cells, rechallenge one week later): significant increase in the frequency of mice showing a protective response
- Frequency of mice showing a protective response (CT26 cells; second assay: CT26 cells, rechallenge 7 days later): Significant increases in the frequency of mice showing a protective response

Compound: C[C@@H](N)[C@H]1CC[C@H](C(=O)Nc2ccncc2)CC1 [Y27632]
- Engulfment of neighboring cells by gamma-irradiated CMFDA+ cells (cell-in-cell internalization) (HCT116 cells [4]): repressed

Compound: CO/C1=C\C(C)=C\[C@@H](C)[C@@H](O)[C@@H](C)C/C(C)=C/C=C/[C@H](OC)[C@@H]([C@@H](C)[C@@H](O)[C@H](C)[C@@]2(O)C[C@@H](O)[C@H](C)[C@@H](C(C)C)O2)OC1=O [bafilomycin A1, Bafilomycin A1]
- Frequency of dying cells (AnnexinV+DRAQ7- and DRAQ7+ cells) (HCT116 cells [4]; total, non-irradiated CMTMR+ and irradiated CMFDA+ cells, BafA1 50 nM): increased the frequency of dying cells

Compound: CC[C@H](CO)Nc1nc(NCc2ccccc2)c2ncn(C(C)C)c2n1 [roscovitine, Roscovitine]
- Exposure of PS on the outer plasma membrane of irradiated CMFDA+ cells (HCT116 cells [4]): inhibited the exposure of PS

Compound: COC(=O)CC(NC(=O)C(C)NC(=O)C(NC(=O)OCc1ccccc1)C(C)C)C(=O)CF (stereo not drawn) [Z-VAD-fmk, Benzyloxycarbonyl-Val-Ala-Asp(OMe)-fluoromethylketone] (Cbz-Val-Ala-Asp(OMe)-CH2F; configuration not given here)
- Engulfment of neighboring cells by gamma-irradiated CMFDA+ cells (cell-in-cell internalization) (HCT116 cells [4]): not affected
- Exposure of PS on the outer plasma membrane of irradiated CMFDA+ cells (HCT116 cells [4]): inhibited the exposure of PS
- Cellular degradation of engulfed CMTMR+ cells (HCT116 cells [4]; inhibitors 100 μM): significantly reduced
